From patent US9783532B2, “Molecules having certain pesticidal utilities, and intermediates, compositions, and processes related thereto” (Dow AgroSciences LLC, priority 2013, dated 2017)

What was measured:
[1] = tested on: Beet Armyworm (Spodoptera exigua) ("BAW"); assay: Bioassay on beet armyworm (BAW), 128-well diet tray assay; format: in vivo; conditions: for pest or weed control at 50 µg/cm2: Table ABC (FB), activity rating class, read-out: BAW (Biological Results, Insect species); for mortality at 50 µg/cm2: 168 h, 50 μg/cm^2 on artificial diet, second instar BAW larvae, 25° C., five to seven days, average of eight wells, read-out: BAW % Control (or Mortality) rating
Protocol: (§1) Certain molecules disclosed in this document were tested against BAW and CEW using procedures described in the following examples. In the reporting of the results, the “BAW & CL Rating Table” was used (See Table Section). BIOASSAYS ON BAW
Bioassays on BAW were conducted using a 128-well diet tray assay. one to five second instar BAW larvae were placed in each well (3 mL) of the diet tray that had been previously filled with 1 mL of artificial diet to which 50 μg/cm^2 of the test compound (dissolved in 50 μL of 90:10 acetone-water mixture) had been applied (to each of eight wells) and then allowed to dry. Trays were covered with a clear self-adhesive cover and held at 25° C., 14:10 light-dark for five to seven days. Percent mortality was recorded for the larvae in each well; activity in the eight wells was then averaged. The results are indicated in the table entitled “Table ABC: Biological Results” (See Table Section).

[2] = tested on: Cabbage Looper (Trichoplusia ni) ("CL"); assay: Bioassay on cabbage looper (CL), 128-well diet tray assay; format: in vivo; conditions: for pest or weed control at 50 µg/cm2: Table ABC (FB), activity rating class, read-out: CL (Biological Results, Insect species); for mortality at 50 µg/cm2: 168 h, 50 μg/cm^2 on artificial diet, second instar CL larvae, 25° C., five to seven days, average of eight wells, read-out: CL % Control (or Mortality) rating
Protocol: as §1
Bioassays on CL were conducted using a 128-well diet tray assay. one to five second instar CL larvae were placed in each well (3 mL) of the diet tray that had been previously filled with 1 mL of artificial diet to which 50 μg/cm^2 of the test compound (dissolved in 50 μL of 90:10 acetone-water mixture) had been applied (to each of eight wells) and then allowed to dry. Trays were covered with a clear self-adhesive cover and held at 25° C., 14:10 light-dark for five to seven days. Percent mortality was recorded for the larvae in each well; activity in the eight wells was then averaged. The results are indicated in the table entitled “Table ABC: Biological Results” (See Table Section).

| SMILES | pest or weed control at 50 µg/cm2 [1] [%] | pest or weed control at 50 µg/cm2 [2] [%] | mortality at 50 µg/cm2 [1] [%] | mortality at 50 µg/cm2 [2] [%] |
| --- | --- | --- | --- | --- |
| CC(C)c1cc(F)ccc1N1C(=O)CS/C1=N\C(=O)NCc1cccc(-c2ncn(-c3ccc(OC(F)(F)F)cc3)n2)c1 [FB33, (Z)-1-(3-(4-fluoro-2-isopropylphenyl)-4-oxothiazolidin-2-ylidene)-3-(3-(1-(4-(trifluoromethoxy)phenyl)-1H-1,2,4-triazol-3-yl)benzyl)urea] | 50 to 100 | 50 to 100 |  |  |
| CC(C)c1ccc(Cl)cc1N1C(=O)CS/C1=N\C(=O)NCc1cccc(-c2ncn(-c3ccc(OC(F)(F)F)cc3)n2)c1 [FB35, (Z)-1-(3-(5-chloro-2-isopropylphenyl)-4-oxothiazolidin-2-ylidene)-3-(3-(1-(4-(trifluoromethoxy)phenyl)-1H-1,2,4-triazol-3-yl)benzyl)urea] | 50 to 100 | 50 to 100 |  |  |
| COc1ccc(NC(=S)NC(=O)NCCCCc2cccc(-c3ncn(-c4ccc(OC(F)(F)F)cc4)n3)c2)c(C)c1 [FB36, 1-[(4-methoxy-2-methyl-phenyl)carbamothioyl]-3-[4-[3-[1-[4-(trifluoromethoxy)phenyl]-1H-1,2,4-triazol-3-yl]phenyl]butyl]urea] | 0 to 50 | 50 to 100 |  |  |
| CC(C)c1ccc(Cl)cc1NC(=S)NC(=O)NCCCCc1cccc(-c2ncn(-c3ccc(OC(F)(F)F)cc3)n2)c1 [FB37, 1-[(5-chloro-2-isopropyl-phenyl)carbamothioyl]-3-[4-[3-[1-[4-(trifluoromethoxy)phenyl]-1H-1,2,4-triazol-3-yl]phenyl]butyl]urea] | 0 to 50 | 0 to 50 |  |  |
| COc1ccc(N2C(=O)CS/C2=N\C(=O)NCCCCc2cccc(-c3ncn(-c4ccc(OC(F)(F)F)cc4)n3)c2)c(C)c1 [FB38, (Z)-1-(3-(4-methoxy-2-methylphenyl)-4-oxothiazolidin-2-ylidene)-3-(4-(3-(1-(4-(trifluoromethoxy)phenyl)-1H-1,2,4-triazol-3-yl)phenyl)butyl)urea] | 0 to 50 | 50 to 100 |  |  |
| CC(C)c1ccc(Cl)cc1N1C(=O)CS/C1=N\C(=O)NCCCCc1cccc(-c2ncn(-c3ccc(OC(F)(F)F)cc3)n2)c1 [FB39, (Z)-1-(3-(5-chloro-2-isopropylphenyl)-4-oxothiazolidin-2-ylidene)-3-(4-(3-(1-(4-(trifluoromethoxy)phenyl)-1H-1,2,4-triazol-3-yl)phenyl)butyl)urea] | 50 to 100 | 50 to 100 |  |  |
| Cc1ccc(C(C)C)c(N2C(=O)CS/C2=N\C(=O)N[C@H](C)Cc2ccc(-c3ncn(-c4ccc(OC(F)(F)F)cc4)n3)cc2)c1 [FB45, (R,Z)-1-(3-(2-isopropyl-5-methylphenyl)-4-oxothiazolidin-2-ylidene)-3-(1-(4-(1-(4-(trifluoromethoxy)phenyl)-1H-1,2,4-triazol-3-yl)phenyl)propan-2-yl)urea] | 50 to 100 | 50 to 100 |  |  |
| CC(C)c1ccc(Cl)cc1N1C(=O)CS/C1=N\C(=O)NCCc1ccc(-c2ncn(-c3ccc(C(F)(F)F)cc3)n2)cc1 [FB50, (Z)-1-(3-(5-chloro-2-isopropylphenyl)-4-oxothiazolidin-2-ylidene)-3-(4-(1-(4-(trifluoromethyl)phenyl)-1H-1,2,4-triazol-3-yl)phenethyl)urea] | 50 to 100 | 50 to 100 |  |  |
| Cc1ccc(C(C)C)c(N2C(=O)CS/C2=N\C(=O)NC(C)(C)Cc2ccc(-c3ncn(-c4ccc(OC(F)(F)F)cc4)n3)cc2)c1 [FB52, (Z)-1-(3-(2-isopropyl-5-methylphenyl)-4-oxothiazolidin-2-ylidene)-3-(2-methyl-1-(4-(1-(4-(trifluoromethoxy)phenyl)-1H-1,2,4-triazol-3-yl)phenyl)propan-2-yl)urea] | 50 to 100 | 50 to 100 |  |  |
| CCc1ccc(C)cc1N1/C(=N/C(=O)NCCc2ccc(-c3ncn(-c4ccc(OC(F)(F)F)cc4)n3)cc2)SCC1C (stereo not drawn) [FB55, (Z)-1-(3-(2-ethyl-5-methylphenyl)-4-methylthiazolidin-2-ylidene)-3-(4-(1-(4-(trifluoromethoxy)phenyl)-1H-1,2,4-triazol-3-yl)phenethyl)urea] | 50 to 100 | 50 to 100 |  |  |
| Cc1ccc(C(C)C)c(N2C(=O)C(F)S/C2=N\C(=O)NCCc2ccc(-c3ncn(-c4ccc(OC(F)(F)F)cc4)n3)cc2)c1 (stereo not drawn) [FB64, (Z)-1-(5-fluoro-3-(2-isopropyl-5-methylphenyl)-4-oxothiazolidin-2-ylidene)-3-(4-(1-(4-(trifluoromethoxy)phenyl)-1H-1,2,4-triazol-3-yl)phenethyl)urea] | 50 to 100 | 50 to 100 |  |  |
| CCS/C(=N\C(=O)NCCc1ccc(-c2ncn(-c3ccc(OC(F)(F)F)cc3)n2)cc1)Nc1cc(C)ccc1C(C)C [FB66, (Z)-ethyl N-(2-isopropyl-5-methylphenyl)-N′-((4-(1-(4-(trifluoromethoxy)phenyl)-1H-1,2,4-triazol-3-yl)phenethyl)carbamoyl)carbamimidothioate] | 50 to 100 | 50 to 100 |  |  |
| Cc1ccc(C(C)C)c(N2C(=O)C(C)(C)S/C2=N\C(=O)NCCc2ccc(-c3ncn(-c4ccc(OC(F)(F)F)cc4)n3)cc2)c1 [FB68, (Z)-1-(3-(2-isopropyl-5-methylphenyl)-5,5-dimethyl-4-oxothiazolidin-2-ylidene)-3-(4-(1-(4-(trifluoromethoxy)phenyl)-1H-1,2,4-triazol-3-yl)phenethyl)urea] | 50 to 100 | 50 to 100 |  |  |
| Cc1ccc(C(C)C)c(N2C(=O)C3(CC3)S/C2=N\C(=O)NCCc2ccc(-c3ncn(-c4ccc(OC(F)(F)F)cc4)n3)cc2)c1 [FB69, (Z)-1-(6-(2-isopropyl-5-methylphenyl)-7-oxo-4-thia-6-azaspiro[2.4]heptan-5-ylidene)-3-(4-(1-(4-(trifluoromethoxy)phenyl)-1H-1,2,4-triazol-3-yl)phenethyl)urea] | 50 to 100 | 50 to 100 |  |  |
| Cc1ccc(C(C)C)c(N2C(=O)C(C(C)(C)O)S/C2=N\C(=O)NCCc2ccc(-c3ncn(-c4ccc(OC(F)(F)F)cc4)n3)cc2)c1 (stereo not drawn) [FB72, (Z)-1-(5-(2-hydroxypropan-2-yl)-3-(2-isopropyl-5-methylphenyl)-4-oxothiazolidin-2-ylidene)-3-(4-(1-(4-(trifluoromethoxy)phenyl)-1H-1,2,4-triazol-3-yl)phenethyl)urea] | 50 to 100 | 50 to 100 |  |  |
| Cc1ccccc1N1C(=O)CS/C1=N\C(=O)NCc1ccc(-c2ncn(-c3ccc(OC(F)(F)F)cc3)n2)cc1 [P1, (Z)-1-(4-oxo-3-(o-tolyl)thiazolidin-2-ylidene)-3-(4-(1-(4-(trifluoromethoxy)phenyl)-1H-1,2,4-triazol-3-yl)benzyl)urea] |  |  | 50 to 100 | 50 to 100 |
| CCc1ccccc1N1C(=O)CS/C1=N\C(=O)NCc1ccc(-c2ncn(-c3ccc(OC(F)(F)F)cc3)n2)cc1 [P2, P532, (Z)-1-(3-(2-ethylphenyl)-4-oxothiazolidin-2-ylidene)-3-(4-(1-(4-(trifluoromethoxy)phenyl)-1H-1,2,4-triazol-3-yl)benzyl)urea] |  |  | 50 to 100 | 50 to 100 |
| CC(C)c1cc(F)ccc1N1C(=O)CS/C1=N\C(=O)NCc1ccc(-c2ncn(-c3ccc(OC(F)(F)F)cc3)n2)cc1 [P3, P1172, (Z)-1-(3-(4-fluoro-2-isopropylphenyl)-4-oxothiazolidin-2-ylidene)-3-(4-(1-(4-(trifluoromethoxy)phenyl)-1H-1,2,4-triazol-3-yl)benzyl)urea] |  |  | 50 to 100 | 50 to 100 |
| Cc1ccc(N2C(=O)CS/C2=N\C(=O)NCc2ccc(-c3ncn(-c4ccc(OC(F)(F)F)cc4)n3)cc2)c(C(C)C)c1 [P5, (Z)-1-(3-(2-isopropyl-4-methylphenyl)-4-oxothiazolidin-2-ylidene)-3-(4-(1-(4-(trifluoromethoxy)phenyl)-1H-1,2,4-triazol-3-yl)benzyl)urea] |  |  | 50 to 100 | 50 to 100 |
| COc1ccc(N2C(=O)CS/C2=N\C(=O)NCc2ccc(-c3ncn(-c4ccc(OC(F)(F)F)cc4)n3)cc2)c(C)c1 [P6, (Z)-1-(3-(4-methoxy-2-methylphenyl)-4-oxothiazolidin-2-ylidene)-3-(4-(1-(4-(trifluoromethoxy)phenyl)-1H-1,2,4-triazol-3-yl)benzyl)urea] |  |  | 50 to 100 | 50 to 100 |
| CCc1ccc(C)cc1N1C(=O)CS/C1=N\C(=O)NCc1ccc(-c2ncn(-c3ccc(OC(F)(F)F)cc3)n2)cc1 [P7, (Z)-1-(3-(2-ethyl-5-methylphenyl)-4-oxothiazolidin-2-ylidene)-3-(4-(1-(4-(trifluoromethoxy)phenyl)-1H-1,2,4-triazol-3-yl)benzyl)urea] |  |  | 50 to 100 | 50 to 100 |
